The test system of data set [1] is isoprenalin-induced tachycardia. In words: Inhibition of isoprenalin-induced tachycardia in anaesthetized cats. In kind it is in vivo, cat. The note with it: for ED50: Felis catus, iv, graphic extrapolation on dose-effect curve, read-out: ED50 (reduction of isoprenalin-induced tachycardia by 50%). The protocol: A comparative screening test was conducted on anaestetized cats suffering from isoprenalin-induced tachycardia.
(§1) To provide an informative determination of the ED50 of the test preparation on isoprenalin-induced tachycardia of anaesthetized cats as well as qualitative determination of the characteristic effect of the preparation on blood pressure and heart beat frequency in resting position.
3.2 Test animals: male and female cats,
weighing 1.6 to 3.2 kg, un-
(§2) Anaesthetic: hexobarbital (Evipan-Na),
Respiration: spontaneous after tracheo-
femoralis for injection of
the test preparations; ca-
(§3) theterization of A. femo-
(§4) ralis for measuring arterial
(§5) blood pressure; blood coagu-
sodium heparinate, 600 units
(§6) phase and mean blood press-
(§7) ure, using a Statham press-
(§8) ure gauge and an HSE elec-
(§9) tromanometer; heart frequency
(§10) by means of the pulse wave
(§11) interval, using an HSE-EKA
(§12) sphygmograph or HSE frequency
3.3.2 Administration of the
Isoprenalin: i.v. injection; dose 0.3 to
1 μg/kg; volume administer-
ed: 0.1 ml/kg; intervals bet-
ween injections; 10 min.
i.v. injections, each 4 min.
prior to the next isoprenalin
injection; dosage range: 10
to 100 μg/kg and, respect.,
injection time: 10 sec.
3.3.3 Criteria determining
percentage reduction in iso-
prenalin-induced tachycardia;
measured at maximum efficien-
cy (4 min. after injection).
ED50 is determined by graph-
ic extrapolation on the
curves showing the effect-
iveness of the dose admini-
stered. ED50 means the dose
(μg/kg i.v.) required for
reducing tachycardia by
50% as compared to the ori-
Table 1 informs on the results of the above experiments. The quantitative criteria in this table are: reduction of isoprenalin-induced tachycardia in percent; ED50 determined by graphic extrapolation on the curve showing the effectiveness of the respective dose; and relative activity which may be calculated as quotient from the ED50 (μg/kg) of propranolol and the ED50 of the test preparation.

For data set [2], the system named is mean arterial blood pressure in resting position. The experiment in a line: Effect on mean arterial blood pressure in resting position in anaesthetized cats. In kind it is in vivo, cat. The note with it: i.v., qualitative, 10 to 100 ug/kg.
Excerpt: as §1, §2, §3, §4, §5, §6, §7, §8, §9
(§13) The remaining data in the table refer to the characteristic effect of the test preparation on the heart beat frequency in resting position, arterial blood pressure in resting position, and reduction of isoprenalin-induced drop in blood pressure; the respective data are more of qualitative nature.

The subject of data set [3] is heart beat frequency in resting position. In words: Effect on heart beat frequency in resting position in anaesthetized cats. In kind it is in vivo, cat. The following applies: for HR norm (bradycardial effect, heart beat frequency in resting position): anaesthetized cats, i.v., qualitative, 10 to 100 ug/kg.
Excerpt: as §1, §2, §9, §10, §11, §12, §13

Data set [4] concerns isoprenalin-induced drop in arterial blood pressure. The experiment in a line: Reduction of isoprenalin-induced drop in arterial blood pressure in anaesthetized cats. In kind it is in vivo, cat. The note with it: for m BP Isopr. (reduction in mean, isoprenalin-induced drop in arterial blood pressure): i.v., qualitative, 10 to 100 ug/kg; for isoprenalin-induced drop in arterial blood pressure: summary in words.

Data set [5] can be described thus: Acute toxicity (Litchfield and Wilcoxon). The following applies: in vivo. As for the experimental part: The acute toxicity of the inventive compound is determined by the method of Litchfield and Wilcoxon (J. Pharmacol. exp. Therap., 96 (1949), 99).
The test system of another data set is β-adrenergic. The experiment in a line: β-adrenergic blocking activity in mammals. The following applies: mammals such as mice, rats and cats. It counts as in vivo. From the text:
It is also to be expected that the above compound will have similar effects when administered to humans.

The structures appear in SMILES notation.

Broadly, the ED50 is the dose at which the effect has come halfway, by size or by number of responders. As to `CC(C)NCC(O)COc1cccc2ccccc12` (centres unmarked) [Propranolol, reference compound], the median effective dose (ED50) in data set [1] (anaesthetized cats) was 0.048 mg/kg. Further, the “m BP norm (effectiveness in lowering blood pressure, mean arterial pressure in resting position)” value in data set [2] was “+ - ++ and d.d”. In addition, the “HR norm (bradycardial effect, heart beat frequency in resting position)” value in data set [3] is “+ - +++ and d.d”. For the same molecule, in data set [4], the “m BP Isopr. (reduction in mean, isoprenalin-induced drop in arterial blood pressure)” value was “+ - +++R and d.d”; the “isoprenalin-induced drop in arterial blood pressure” value was “reliably reduced and blocked”.
As a reminder, the LD50 is the dose at which mortality reaches 50%. High values mean lower toxicity, low ones greater toxicity. In the case of `Cc1ccc([N+](=O)[O-])c(OCC(O)CNC(C)C)c1.Cl` (centres unmarked) [Compound of the invention, 1-(5-methyl-2-nitrophenoxy)-2-hydroxy-3-isopropylaminopropane-hydrochloride], the LD50 worked out at 250 mg/kg in data set [5] (ip, mouse, female and male, in each case 10 female and male mice); 105 mg/kg in data set [5] (iv, mouse, female and male, in each case 10 female and male mice); 1280 mg/kg in data set [5] (po, mouse, female and male, in each case 10 female and male mice); 192 mg/kg in data set [5] (rat, ip, female and male); 68.9 mg/kg in data set [5] (rat, iv, female); 80 mg/kg in data set [5] (rat, iv, male). This molecule also displayed an LD50 in data set [5] (rat, po, female and male) of 1120 mg/kg. Besides, the ED50 in data set [1] (anaesthetized cats) is 0.021 mg/kg. Moreover, the “Rel. Activity (ED50 of propranolol / ED50 of test preparation)” value in data set [1] (based on ED50 of propranolol (=1)) turned out to be 2.3. The “beta-blocking activity in the tests on isoprenalin-induced tachycardia” value in data set [1] (compared to propranolol, anaesthetized cats) is on record as “good beta-blocking activity”. In data set [3], the “HR norm (bradycardial effect, heart beat frequency in resting position)” value was “+ - +++ and d.d”. The “reduction of frequency of heart beat in resting position” value in data set [3] (depending on the original position and the dose administered) is given as “effectively reduced”. Besides, the “m BP Isopr. (reduction in mean, isoprenalin-induced drop in arterial blood pressure)” value in data set [4] was “+ - +++R and d.d”. The “isoprenalin-induced drop in arterial blood pressure” value in data set [4] was “reliably reduced and blocked”. In addition, the β-adrenergic blocking activity result in the data set on β-adrenergic was “demonstrated”.

The values are drawn from patent publication US4371545A, “Isopropyl amine compounds” (Dolorgiet Beteiligungs GmbH, priority 1978, dated 1983).
